Test results published in ChEMBL document CHEMBL1201862, “PubChem BioAssay data set” (2004).
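1) Cells in 96-well plates. 2) Compound, 48 h, 5 concentrations. 3) Linear interpolation between surrounding doses. 4) Unreached endpoint = highest concentration. GI50 marks 50% less growth.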 Activity calls are given as the source filed them. Rule as the data show it: active = GI50 up to about 1.1 µM and inactive = higher.

Legend:
Experiment in all cases: growth of human tumour cells (NCI), 48 h
786-0 = test system: 786-0
LOX IMVI = test system: LOX IMVI
SK-MEL-28 = test system: SK-MEL-28
SNB-19 = test system: SNB-19
HCC 2998 = test system: HCC 2998
NCI-H23 = test system: NCI-H23
CAKI-1 = test system: CAKI-1
U-251 = test system: U-251
DU-145 = test system: DU-145
BT-549 = test system: BT-549
CCRF-CEM = test system: CCRF-CEM
T47D = test system: T47D
MDA-MB-435 = test system: MDA-MB-435
Malme-3M = test system: Malme-3M
SF-295 = test system: SF-295
KM12 = test system: KM12
SNB-75 = test system: SNB-75
SF-268 = test system: SF-268
SW-620 = test system: SW-620

Measured: GI50

CCOC(=O)CCC(NC(=O)c1ccc(Nc2nc3ccccc3nc2-c2cccs2)cc1)C(=O)OCC (stereo not given)
inactive: 786-0 32.4 µM | LOX IMVI 23.1 µM | SK-MEL-28 26.3 µM | SNB-19 29.2 µM | HCC 2998 33.9 µM | NCI-H23 32.3 µM | CAKI-1 29.8 µM | U-251 27.4 µM | DU-145 29.8 µM | BT-549 23.6 µM | CCRF-CEM 11.4 µM | T47D 12 µM | MDA-MB-435 30.2 µM | Malme-3M 24.1 µM | SF-295 19.4 µM | KM12 24.6 µM | SNB-75 36.3 µM | SF-268 27.1 µM | SW-620 33.8 µM

CC(=O)OCC1OC(n2c(S)nc(-c3ccccc3)c(C#N)c2=O)C(OC(C)=O)C(OC(C)=O)C1OC(C)=O (stereo not given)
inactive: 786-0 > 100 µM | LOX IMVI > 100 µM | SK-MEL-28 > 100 µM | SNB-19 > 100 µM | HCC 2998 > 100 µM | NCI-H23 > 100 µM | CAKI-1 > 100 µM | U-251 > 100 µM | DU-145 > 100 µM | BT-549 > 100 µM | CCRF-CEM > 100 µM | T47D > 100 µM | MDA-MB-435 > 100 µM | Malme-3M > 100 µM | SF-295 > 100 µM | KM12 > 100 µM | SNB-75 98.9 µM | SF-268 > 100 µM | SW-620 > 100 µM

CC(=O)Oc1ccc2c(c1)oc1c3ccc(OC(C)=O)cc3n(C)c(=O)c21
inactive: 786-0 1.15 µM | SK-MEL-28 16.3 µM | SNB-19 > 100 µM | HCC 2998 17.2 µM | NCI-H23 46.3 µM | U-251 55 µM | DU-145 24 µM | BT-549 93.1 µM | CCRF-CEM 18.3 µM | T47D 34.8 µM | MDA-MB-435 37.8 µM | Malme-3M 6.47 µM | SF-295 36.7 µM | KM12 3.78 µM | SNB-75 1.14 µM | SF-268 12.5 µM | SW-620 26.4 µM

CCOC(=O)c1cc(-c2ccc([N+](=O)[O-])cc2)c([N+](=O)[O-])[nH]1
inactive: 786-0 3.52 µM | SNB-19 2.91 µM | HCC 2998 4.38 µM | NCI-H23 2.84 µM | U-251 3.46 µM | DU-145 2.96 µM | BT-549 3.4 µM | CCRF-CEM 2.6 µM | T47D 2.33 µM | MDA-MB-435 2.75 µM | Malme-3M > 10 µM | SF-295 2.1 µM | KM12 7.19 µM | SNB-75 > 10 µM | SF-268 4.53 µM

COc1c(-c2nc3ccc(N4CCN(C)CC4)nc3[nH]2)cc(OC)c2[nH]c(COC(C)=O)nc12
inactive: 786-0 22.8 µM | LOX IMVI 25.9 µM | SK-MEL-28 49.1 µM | SNB-19 28.1 µM | HCC 2998 15.2 µM | NCI-H23 32.2 µM | CAKI-1 > 100 µM | U-251 13.8 µM | DU-145 29 µM | BT-549 56.9 µM | T47D 22.5 µM | MDA-MB-435 26.5 µM | Malme-3M 28.1 µM | SF-295 34.4 µM | KM12 23.9 µM | SNB-75 24.4 µM | SF-268 61.8 µM | SW-620 27.9 µM

CCOC(=O)c1cn(-c2ccccc2)c(=S)n2c1nc1ccccc12
inactive: 786-0 43.4 µM | LOX IMVI > 67.1 µM | SK-MEL-28 28.2 µM | SNB-19 > 66.2 µM | HCC 2998 > 52.7 µM | NCI-H23 45.7 µM | CAKI-1 49 µM | U-251 58.5 µM | DU-145 63.2 µM | BT-549 41.8 µM | CCRF-CEM 5.53 µM | T47D 80 µM | MDA-MB-435 32.5 µM | SF-295 71.8 µM | KM12 33.7 µM | SNB-75 > 71.6 µM | SF-268 21.7 µM | SW-620 52.6 µM

COc1c2c(c3c(c1OC)c(=O)c1ccccc1n3C)OCO2
inactive: 786-0 > 100 µM | LOX IMVI > 100 µM | SK-MEL-28 > 100 µM | SNB-19 > 100 µM | HCC 2998 > 100 µM | NCI-H23 > 100 µM | CAKI-1 > 100 µM | U-251 > 100 µM | DU-145 > 100 µM | BT-549 > 100 µM | CCRF-CEM > 100 µM | T47D > 100 µM | MDA-MB-435 > 100 µM | SF-295 > 100 µM | KM12 > 100 µM | SNB-75 > 100 µM | SF-268 > 100 µM | SW-620 > 100 µM

C=C1C(=O)C([Si](C)(C)C)=C2C=C(C)C3(CC3)C12C (stereo not given)
inactive: 786-0 95.3 µM | LOX IMVI 22.6 µM | SK-MEL-28 58.1 µM | SNB-19 > 100 µM | HCC 2998 38.9 µM | NCI-H23 46.6 µM | CAKI-1 35.6 µM | U-251 28.2 µM | DU-145 > 100 µM | BT-549 25.4 µM | CCRF-CEM 1.19 µM | T47D > 100 µM | MDA-MB-435 12.9 µM | Malme-3M 14.7 µM | SF-295 30.4 µM | KM12 38.3 µM | SF-268 53.2 µM | SW-620 59.7 µM

O=C(Nc1ccccc1F)c1cc2ccc(O)cc2o/c1=N\c1ccccc1F
inactive: 786-0 1.79 µM | LOX IMVI 2.57 µM | SK-MEL-28 2.45 µM | SNB-19 4.25 µM | HCC 2998 2.99 µM | NCI-H23 2.17 µM | CAKI-1 1.98 µM | U-251 1.93 µM | DU-145 1.95 µM | BT-549 2.83 µM | CCRF-CEM 1.5 µM | T47D 1.96 µM | MDA-MB-435 2.03 µM | Malme-3M 1.73 µM | SF-295 2.84 µM | KM12 1.98 µM | SF-268 2.27 µM | SW-620 2.88 µM

Oc1c(Cl)c(Cl)c(Cl)c(Cl)c1Cl [PENTACHLOROPHENOL]
inactive: 786-0 21 µM | LOX IMVI 17.9 µM | SK-MEL-28 24 µM | SNB-19 30.3 µM | HCC 2998 > 100 µM | NCI-H23 21.8 µM | CAKI-1 18.3 µM | U-251 16.1 µM | DU-145 21.4 µM | BT-549 25.6 µM | CCRF-CEM 21.3 µM | T47D 20 µM | MDA-MB-435 20.7 µM | SF-295 17.2 µM | KM12 19.5 µM | SNB-75 22.9 µM | SF-268 31.1 µM | SW-620 24.5 µM

CC1=CC(=O)/C(=C/N2CCNC2=S)C(=O)O1
inactive: 786-0 > 100 µM | LOX IMVI > 100 µM | SNB-19 > 100 µM | HCC 2998 > 100 µM | NCI-H23 > 100 µM | CAKI-1 > 100 µM | U-251 > 100 µM | DU-145 > 100 µM | BT-549 > 100 µM | CCRF-CEM > 100 µM | T47D > 100 µM | MDA-MB-435 > 100 µM | SF-295 > 100 µM | KM12 > 100 µM | SNB-75 89.7 µM | SF-268 > 100 µM | SW-620 > 100 µM
